Data from US20210068395A1, “METHODS OF APPLYING ONE OR MORE CERTAIN HETEROARYL-1,2,4-TRIAZOLE AND HETEROARYL-TETRAZOLE COMPOUNDS TO CONTROL DAMAGE ON PLANTS, PROPAGATION MATERIAL THEREOF, AND PLANT DERIVED PRODUCTS” (SYNGENTA CROP PROTECTION AG, priority 2018, published 2021).

Columns and labels:
Assay type in all cases: in vivo
[1] = system: Myzus persicae (Green Peach Aphid); experiment: Myzus persicae systemic activity; conditions: 144 h, test rate 24 ppm, roots of pea seedlings in test solution, 6 days
Experimental: Roots of pea seedlings infested with an aphid population of mixed ages were placed directly into aqueous test solutions prepared from 10,000 DMSO stock solutions. The samples were assessed for mortality 6 days after placing seedlings into test solutions.

[2] = system: Spodoptera littoralis (Egyptian Cotton Leaf Worm); experiment: Spodoptera littoralis systemic activity (lettuce); conditions: 144 h, test rate 12.5 ppm, root uptake in lettuce, 6 days after infestation, read-out: control in at least one of the three categories (mortality or growth inhibition or anti-feeding)
From the text: Test compounds were applied by pipette prepared from 10,000 ppm DMSO stock solutions into 24-well plates and mixed with agar. Lettuce seeds were placed onto the agar and the multi well plate was closed by another plate which contained also agar. After 7 days the compound was absorbed by the roots and the lettuce grew into the lid plate. The lettuce leaves were then cut off into the lid plate. Spodoptera eggs were pipetted through a plastic stencil onto a humid gel blotting paper and the lid plate was closed with it. The samples were assessed for mortality, anti-feeding and growth inhibition 6 days after infestation.

[3] = system: Chrysodeixis includens (Soybean Looper); experiment: Chrysodeixis includens larvicide, feeding/contact; conditions: 120 h, test rate 50 ppm, L2 larvae on soybean leaves, 5 days after infestation, read-out: control in at least one of the two categories (mortality or growth inhibition)
Experimental: Soybean plants were treated in a spray chamber, cut off and placed into petri dishes containing wet filter paper. 1 d after application leaves were infested with 5 L2 larvae and covered with a fabric filter and plastic lids. 5 days after infestation the samples were assessed for mortality and growth inhibition.

[4] = system: Chilo suppressalis (Striped Stem Borer); experiment: Chilo suppressalis larvicide, feeding/contact; conditions: 120 h, test rate 200 ppm, L2 larvae on sprayed rice plants, 5 days after application
Experimental: Rice plants were treated in a spray chamber, cut off and placed into petri dishes containing wet filter paper. 10 L2 larvae were infested and covered up with a cotton filter and a lid. 5 days after application samples were assessed for mortality.

[5] = system: German cockroaches, Blattella germanica; experiment: Cockroach N3 contact bioassay; conditions: 72 h, test rate 100 ppm, third nymphal stage, sprayed, 3 days
Experimental: (§1) Ten third nymphal stage German cockroaches, Blattella germanica, were placed in a 250 ml plastic drinking cup along with ca. 1 g of compressed rabbit food, and retained with a section of netting. Experimental compounds are diluted to 1000 ppm w/v in acetone, then subsequently to 100 ppm w/v in a 0.1% Tween solution in de-ionised water. 1 ml of the experimental solution is sprayed with a Potter tower directly through the retaining net onto the cockroach nymphs. A damp cotton wool ball is placed on top of the retaining net, and the cups held at 24° C. and ambient humidity. Assessment of mortality is made three days after application.

[6] = system: house flies, Musca domestica; experiment: House fly adult contact bioassay; conditions: 72 h, test rate 100 ppm, adult females, sprayed, 3 days
Experimental: as §1, with “adult female house flies, Musca domestica, are” for “third nymphal stage German cockroaches, Blattella germanica, were”, “a sugar cube,” for “ca. 1 g of compressed rabbit food,”, “adult house flies.” for “cockroach nymphs.”

[7] = system: German cockroaches, Blattella germanica; experiment: Cockroach bait bioassay; conditions: 72 h, test rate 1000 ppm in peanut butter bait, adults, 3 days
Experimental: The experimental compound is diluted in acetone to 1000 ppm w/v. 1 ml of this solution is added to 1 g of smooth peanut butter in a 15 ml glass vial and thoroughly mixed. This mixture is left in a fume cupboard for 24 hours until all the acetone has evaporated. It is then mixed again to ensure a homogeneous distribution of the experimental compound with a concentration of 1000 ppm w/w.
Ten adult male and ten adult female German cockroaches, Blattella germanica, are placed in a plastic arena approximately 20 cm in diameter. Also placed in each arena are a simple harbourage constructed from concertinaed card, and a water source. After the cockroaches have acclimatised for 24 hours the glass vial containing 1 g of the treated bait is introduced.
Assessment of cockroach mortality is made 3 days after bait introduction.

[8] = system: Aedes aegypti (Yellow Fever Mosquito); experiment: whole plant or invertebrate; conditions: test rate 200 ppm, adult females, mortality assessed at 24 and 48 hours
Experimental: (§2) Test solutions, at an application rate of 200 ppm in ethanol, were applied to 12 well tissue culture plates. Once the deposits were dry, five, two to five day old adult female Aedes aegypti were added to each well, and sustained with a 10% sucrose solution in a cotton wool plug. Assessment of knockdown was made one hour after introduction, and mortality was assessed at 24 and 48 hours after introduction.

[9] = system: Anopheles stephensi (Indian Malaria Mosquito); experiment: Anopheles stephensi adult contact on treated plates; conditions: test rate 200 ppm, adult females, mortality assessed at 24 and 48 hours
Experimental: as §2, with “Anopheles stephensi” for “Aedes aegypti”

Compound `CC(c1ncnn1-c1ncccn1)N(C)C(=O)c1cc(C(F)(F)F)cc(C(F)(F)F)c1` (centres unmarked) [Compound 1] has a mortality at 24 ppm [1] of no less than 80%, a percent control (mortality, anti-feedant effect or growth inhibition) at 12.5 ppm [2] of no less than 80% and a percent control (mortality or growth inhibition) at 50 ppm [3] of no less than 80%. For the same compound, the mortality at 200 ppm [4] was no less than 80%.

`CC(NC(=O)c1cc(C(F)(F)F)cc(C(F)(F)F)c1)c1ncnn1-c1ncccn1` (centres unmarked) [Compound 4] showed a percent control (mortality, anti-feedant effect or growth inhibition) at 12.5 ppm [2] of no less than 80%, a mortality at 100 ppm [5] of no less than 80% and a mortality at 100 ppm [6] of no less than 80%. The mortality at 1000 ppm [7] was no less than 80%.

`CC(c1ncnn1-c1ncccn1)N(CC1CC1)C(=O)c1cc(C(F)(F)F)cc(C(F)(F)F)c1` (centres unmarked) [Compound 3] gave a mortality at 24 ppm [1] of no less than 80%, a percent control (mortality, anti-feedant effect or growth inhibition) at 12.5 ppm [2] of no less than 80% and a percent control (mortality or growth inhibition) at 50 ppm [3] of no less than 80%. It also gave a mortality at 200 ppm [4] of no less than 80%, a mortality at 200 ppm [8] of no less than 60% and a mortality at 200 ppm [9] of no less than 60%. The mortality at 100 ppm [5] was no less than 80%, the mortality at 100 ppm [6] was no less than 80% and the mortality at 1000 ppm [7] was no less than 80%.
